Reference: US7217703B2, “8-(2-hydroxyphenoxy)octyldiethanolamine and salts thereof for delivery of active agents” (Emisphere Technologies, Inc., priority 2004, dated 2007)

Assay: Oral absorption of Ibandronate in rats (urine Ibandronate, 16 h collection, GC/MS)
Assay type: in vivo, male Sprague-Dawley rats
Details: oral gavage, rat, urine 0-16 h post-dosing
Experimental: Oral absorption studies were performed in rats to evaluate the delivery of the bisphosphonate, Ibandronate, when co-administered with a delivery agent compound of the present invention. Sprague-Dawley rats were administered Ibandronate alone or in combination with a delivery agent compound by oral gavage. Urine samples were collected up to 16 hours post-dosing for Ibandronate quantitations. […]
Urine Ibandronate levels from treated rats were determined using a GC/MS method with a standard calibration range of 0–2000 ng/mL and a limit of quantitation (LOQ) of 2.5 ng/ml. Quality control (QC) samples were prepared fresh daily and were analyzed with samples from treated rats. […]
The amount of Ibandronate excreted in the urine is the dose response and was plotted as a straight line against the Ibandronate dose (linear dose-response relationship was assumed). The relative potency of the four delivery agent-containing Ibandronate formulations were calculated against the control formulations (without delivery agent) using a Student's t-test. […]

## CCCCCN(C)CCC(O)(P(=O)(O)O)P(=O)(O)O [Ibandronate]
Ibandronate 5 mg/kg alone
  Mean urine Ibandronate concentration: 426.8
Ibandronate 15 mg/kg alone
  Mean urine Ibandronate concentration: 4157.5
